From ChEMBL document CHEMBL4393650, “The Journey of HIV-1 Non-Nucleoside Reverse Transcriptase Inhibitors (NNRTIs) from Lab to Clinic” (J Med Chem, 2019)

Legend:
[1] = molecular target: Human immunodeficiency virus type 1 reverse transcriptase (Human immunodeficiency virus 1) (UniProt Q72547); assay: Inhibition of HIV1 3B reverse transcriptase infected in human PBMC cells after 4 days; format: cell-based
[2] = Lipophilicity, log P of the compound; format: physicochemical; conditions: octanol/water
[3] = Cmax in Beagle dog; format: ADME, Canis lupus familiaris; conditions: in vivo
[4] = Cmax in rat; format: ADME; conditions: in vivo
[5] = Tmax in rat; format: ADME; conditions: in vivo
[6] = molecular target: T1, Human immunodeficiency virus type 1 reverse transcriptase (Human immunodeficiency virus 1, UniProt Q72547); assay: Inhibition of HIV1 reverse transcriptase
[7] = Half life in human serum at 200 mg, bid; format: ADME, cell-free
[8] = system: Human immunodeficiency virus 1; assay: Antiviral activity against HIV1 subtype B; format: functional, organism-based; conditions: Human immunodeficiency virus 1, subtype B
[9] = Half life in human serum at 600 mg, qd; format: ADME, cell-free
[10] = molecular target: T1, Human immunodeficiency virus type 1 reverse transcriptase; assay: Inhibition of HIV1 reverse transcriptase derived from HIV patient plasma by LC/MS/MS analysis
[11] = Half life in human serum at 400 mg, qd; format: ADME, cell-free
[12] = Oral bioavailability in human; format: ADME, organism-based; conditions: in vivo
[13] = molecular target: Human immunodeficiency virus type 1 reverse transcriptase (Human immunodeficiency virus 1) (UniProt Q72547)
[14] = Half life in human serum at 100 mg, qd; format: ADME, cell-free
[15] = molecular target: T1, Human immunodeficiency virus type 1 reverse transcriptase; assay: Inhibition of wild type recombinant HIV1 reverse transcriptase using poly(rA)-oligo(dT) as template/primer
[16] = system: Human immunodeficiency virus 1; assay: Antiviral activity against HIV1; format: functional, organism-based
[17] = system: Human immunodeficiency virus 1; assay: Antiviral activity against HIV1 assessed as serum adjusted potency; format: functional, organism-based
[18] = Half life in human serum at 25 mg, qd; format: ADME, cell-free

Cc1cn([C@H]2C[C@H](N=[N+]=[N-])[C@@H](CO)O2)c(=O)[nH]c1=O
ED50 [1]: 0.07 µM

CCN1c2ccccc2N(C)C(=O)c2cccnc21
logP [2]: 2.46

CCNc1cccnc1N1CCN(C(=O)c2cc3cc(OC)ccc3[nH]2)CC1.CS(=O)(=O)O [ATEVIRDINE SULPHATE]
logP [2]: 1.28
Cmax [3]: 16 to 33 µM
Cmax [4]: 4.6 to 17.4 µM
Tmax [5]: 0.5 to 1 h

CCOC1(c2ccccc2)c2cc(Cl)ccc2NC(=S)N1C (centres undefined)
IC50 [6]: 0.056 µM

O=C1Nc2cccnc2Nc2ncccc21
logP [2]: 1.03

O=C1Nc2ccccc2Nc2ncccc21
logP [2]: 1.65

CCN1c2ncccc2C(=O)Nc2c(C)ccnc21
logP [2]: 2.09

CC(C)Nc1cccnc1N1CCN(C(=O)c2cc3cc(F)ccc3[nH]2)CC1
ED50 [1]: 0.3 µM

Cc1cc(C#N)cc(C)c1Oc1nc(Nc2ccc(C#N)cc2)nc(N)c1Br [ETRAVIRINE]
half-life [7]: 41 h

Cc1cc(/C=C/C#N)cc(F)c1Nc1ccc(F)c(Nc2ccc(C#N)cc2)n1
EC50 [8]: 1000 µM

O=C1Nc2ccc(Cl)cc2[C@@](C#CC2CC2)(C(F)(F)F)O1 [EFAVIRENZ]
half-life [9]: 40 to 55 h

O=C1Nc2cccnc2Nc2ccccc21
IC50 [10]: 6 µM

CC(C)Nc1cccnc1N1CCN(C(=O)c2cc3cc(NS(C)(=O)=O)ccc3[nH]2)CC1 [DELAVIRDINE]
half-life [11]: 2 to 11 h

CCNc1cccnc1N1CCN(C(=O)c2cc3ccccc3[nH]2)CC1
ED50 [1]: 0.3 µM

CC1O[C@](C#CC2CC2)(C(F)(F)F)c2cc(Cl)ccc2NC1=O (some centres undefined)
IC50 [6]: 0.082 µM

Cc1ccnc2c1NC(=O)c1cccnc1N2C1CC1 [NEVIRAPINE]
half-life [7]: 25 to 30 h
logP [2]: 2.05
bioavailability [12]: 95%

O=S1(c2ccccc2)=NC(=S)Nc2ccccc21 (centres undefined)
IC50 [6]: 0.95 to 5.11 µM

CCNc1cccnc1N1CCN(C(=O)c2cc(C)c(OC)c(C)c2)CC1
logP [2]: 3.3
ED50 [1]: 2 µM

O=C1Nc2ccc(Cc3ccccc3)cc2[C@@](C#CC2CC2)(C(F)(F)F)O1
IC90 [13]: 0.279 µM

NC(=O)c1[nH]c2cccc(Cl)c2c1S(=O)(=O)c1ccccc1
EC50 [8]: 1 µM

Cn1c(Cn2ccc(C(F)(F)F)c(Oc3cc(Cl)cc(C#N)c3)c2=O)n[nH]c1=O [DORAVIRINE]
half-life [14]: 11 to 15 h

CCNc1cccnc1N1CCN(Cc2cc(C)c(OC)c(C)c2)CC1
ED50 [1]: 2 µM
IC50 [15]: 20 µM

CC1O[C@](/C=C/C2CC2)(C(F)(F)F)c2cc(Cl)ccc2NC1=O (some centres undefined)
IC50 [6]: 0.046 µM

CC(C)Nc1cccnc1N1CCN(C(=O)c2cc3ccccc3[nH]2)CC1
ED50 [1]: 0.3 µM

N#Cc1cc(Cl)cc(Oc2c(Br)ccc(CC(=O)Nc3ccc(S(N)(=O)=O)cc3Cl)c2F)c1 [DEPULFAVIRINE]
EC50 [16]: 0.0012 µM
EC50 [17]: 0.0138 µM

NC(=O)c1[nH]c2ccccc2c1S(=O)(=O)c1ccccc1
EC50 [8]: 180 µM

COc1ccc2[nH]c(C(=O)N3CCN(c4ncccc4NC(C)C)CC3)cc2c1
ED50 [1]: 0.3 µM

Cc1ccnc2c1NC(=O)c1cccnc1N2
logP [2]: 1.52

Cc1cc(/C=C/C#N)cc(F)c1Nc1cccc(Nc2ccc(C#N)cc2)n1
EC50 [8]: 5500 µM

Cc1cc(/C=C/C#N)cc(C)c1Nc1ccnc(Nc2ccc(C#N)cc2)n1 [RILPIVIRINE]
half-life [18]: 50 h

CCN1c2ncccc2C(=O)N(C)c2cccnc21
logP [2]: 1.84
